Source: US10093656B2, “Fused-ring or tricyclic aryl pyrimidine compound used as kinase inhibitor” (NANJING SANHOME PHARMACEUTICAL CO., LTD, priority 2015, dated 2018)
pIC50: −log10 of the molar value.

Key:
[1] = system: NCI-H1975 lung cancer patient-derived xenograft (CDX); experiment: Pharmacodynamics study in vivo, NCI-H1975 xenograft (CDX) model; parameters: species or system BALB/c nude mice; details: AZD9291 5 mg/kg; for Tumor Volume (mm^3) 4 days: day 4, oral daily: compound 30 10 mg/kg, 33, 34, 40, 42, 43 20 mg/kg; for Tumor Volume (mm^3) 7 days: day 7, oral daily: compound 30 10 mg/kg, 33, 34, 40, 42, 43 20 mg/kg; for Tumor Volume (mm^3) 11 days: day 11, oral daily: compound 30 10 mg/kg, 33, 34, 40, 42, 43 20 mg/kg; for Tumor Volume (mm^3) 14 days: day 14, oral daily: compound 30 10 mg/kg, 33, 34, 40, 42, 43 20 mg/kg; for Tumor Volume (mm^3) 18 days: day 18, oral daily: compound 30 10 mg/kg, 33, 34, 40, 42, 43 20 mg/kg
Protocol: (§1) For example, after 21 days of administration, the tumor volume of the representative compounds 30, 33, 34, 40, 42 and 43 decreased from the beginning of about 149 mm^3 to 3-39 mm^3.
(§2) The pharmacological experiments in vivo were performed on BALB/c nude mice that subcutaneously implanted NCI-H1975 lung cancer […] xenograft (CDX).
(§3) BALB/c nude mice, female, 6-8 weeks, weighted about 18-22 grams, the mice were kept in a special pathogen-free environment, and in a single ventilation cage (5 mice per cage). The bedding and water of all the cages were disinfected before use. All animals were free to obtain standard certified commercial laboratory diets. A total of 100 mice were purchased from Beijing Vital for research. The tumor tissue (20-30 mm^3) was implanted subcutaneously in the […] of each mouse for tumor growth. The experiment was started when the average tumor volume reached about 150-200 mm^3. The test compound was orally administered daily (compound 30 was administered at 10 mg/kg, compound 33, 34, 40, 42 and 43 were administered at 20 mg/kg and compound AZD9291 was administered continuously for 21 days at 5 mg/kg, the data were shown in Table 3). The tumor volume was measured twice a week with a two-dimensional caliper and the volume was measured in cubic millimeters and calculated by the following formula: V=V=0.5 a×b2, where a and b were the major and minor diameters of the tumor, respectively.

[2] = system: NCI-H1975 lung cancer xenograft (CDX); experiment: as above; parameters: species or system BALB/c nude mice; details: day 0, oral daily: compound 30 10 mg/kg, 33, 34, 40, 42, 43 20 mg/kg, AZD9291 5 mg/kg
Protocol: as §1, §2, §3

[3] = system: human skin squamous cell A431 xenograft (CDX); experiment: Selectivity study in vivo, A431 xenograft (CDX) model; parameters: species or system BALB/c nude mice; details: Table 5 experiment, AZD9291 5 mg/kg
Protocol: In this model, the less inhibitory effect on the tumor, the better the selectivity in vivo.
The selective experiments in vivo were performed on BALB/c nude mice that subcutaneously implanted human skin squamous cell A431 xenograft (CDX).
BALB/c nude mice, female, 6-8 weeks, weighted about 18-20 grams, the mice were kept in a special pathogen-free environment and in a single ventilation cage (5 mice per cage). The bedding and water of all the cages were disinfected before use. All animals were free to obtain standard certified commercial laboratory diets. All mice were purchased from mice of Shanghai BK Laboratory Animal Co., LTD for research. The tumor tissue (20-30 mm^3) was implanted subcutaneously in the […] of each mouse for tumor growth. The experiment was started when the average tumor volume reached about 150-200 mm^3. The test compound was orally administered (compounds 17, 30, 37 and 38 were administered once daily at 20 mg/kg, the compound AZD9291 was administered once daily at 5 mg/kg, the compound CO-1686 was administered twice daily at 50 mg/kg, the compound Erlotinib was administered once daily at 75 mg/kg and the compound Afatinib was administered once daily at 7.5 mg/kg, 21 days of continuous administration. The data were shown in Table 4; compounds 33, 34, 40, 42 and 43 were administered once daily at 20 mg/kg and compound AZD9291 was administered once daily at5 mg/kg, 21 days of continuous administration. The tumor volume was measured twice a week with a two-dimensional caliper and the volume was measured in cubic millimeters and calculated by the following formula: V=V=0.5 a×b2, where a and b were the major and minor diameters of the tumor, respectively.

EGFR wild type = target: T1, EGFR wild type (Homo sapiens, UniProt P00533); experiment: Wild-type EGFR enzyme HTRF inhibition assay; type: biochemical; details: 25 μM ATP, read-out: EGFR WT IC50
T1 construct: purchased Life technology (Madison, Wis.)
Outline: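 HTRF with 0.05 nM wild-type EGFR, 1 μM biotin-TK1 peptide, 25 μM ATP, 60 min at 23° C; detected with Eu-anti-TK1 antibody 2 nM and XL665 62.5 nM, 60 min at 23° C. Ten 3-fold doses, 300 nM to 0.015 nM final; IC50 by four-parameter fit of % inhibition.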

[4] = system: NCI-H1975 cells EGFR L858R/T790M; experiment: NCI-H1975 cell viability assay (Cell Titer-Glo, 6 days); type: cell-based; details: Homo sapiens, 144 h
Outline: (§4)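 A431 (EGFR WT) and NCI-H1975 (EGFR L858R/T790M) cells treated for 6 days at 37° C, in duplicate with 10 three-fold doses from 10 μM to 0.508 nM final. Viability read as CellTiter-Glo luminescence. IC50 from four-parameter fit of % inhibition.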

A431 cells EGFR WT = experiment: A431 cell viability assay (Cell Titer-Glo, 6 days); type: cell-based, human; details: for pIC50: Homo sapiens, A-431, 144 h, A431 cells, 6 days; for A431:NCI-H1975 (ratio): ratio of cell IC50 A431 to NCI-H1975
Outline: as §4

EGFR d746-750/T790M = target: T2, EGFR d746-750/T790M (Homo sapiens, UniProt P00533, DEL746-750/T790M); experiment: EGFR d746-750/T790M enzyme HTRF inhibition assay; type: biochemical; details: 40 μM ATP
T2 construct: purchased Carna Biosciences (Japan)
Outline: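 0.025 nM enzyme with 1 μM biotin-TK1 peptide and 40 μM ATP, 60 min at 23° C; compound tested at 10 doses, 300 nM to 0.015 nM final. HTRF read (Eu-anti-TK1 antibody 2 nM, XL665 62.5 nM, 60 min at 23° C); IC50 from four-parameter fit of % inhibition.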

INSR = target: T3, INSR (Homo sapiens, UniProt P06213); experiment: INSR enzyme HTRF inhibition assay; type: biochemical; details: 35 μM ATP, read-out: INSR_IC50
T3 construct: purchased Life technology (Madison, Wis.)
Protocol: Enzyme: EGFR wild type, EGFR T790M/L858R, EGFR T790M and INSR were purchased from Life technology (Madison, Wis.), EGFR d746-750/T790M was purchased from Carna Biosciences (Japan).
HTRF Kit was purchased from Cis-Bio International which contained the Eu-labeled TK1 antibody, XL665 and biotin-labeled TK1 polypeptide substrates.
Detecting instrument: Envision (PerkinElmer).
The test compound was diluted 3-fold to obtain 10 doses of which the final concentration was from 300 nM to 0.015 nM.
INSR Enzyme Reaction Mixture System:
0.5 nM INSR, 1 μM biotin-TK1 peptide, 35 μM ATP enzyme buffer, a total of which was 10 μL. The reaction plate was white Proxiplate 384-Plus plate (PerkinElmer) and the mixture was reacted at 23° C. for 60 minutes.
Reaction Detection: 10 μL of detection reagent containing Antibody 2 nM and XL665 62.5 nM was added, and the reagent was incubated at 23° C. for 60 minutes. The plates were read by Envision.
The reading is converted to the suppression rate (%) by the following formula […]/(Max-Min)*100%. IC50 Data was measured by four-parameter curve fitting (Model 205 in XLFITS, IDBS).

EGFR T790M/L858R = target: T4, EGFR T790M/L858R (Homo sapiens, UniProt P00533, L858R/T790M); experiment: EGFR T790M/L858R enzyme HTRF inhibition assay; type: biochemical; details: 20 μM ATP, read-out: EGFR L858R/T79M IC50
T4 construct: purchased Life technology (Madison, Wis.)
Outline: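 HTRF assay with 0.04 nM enzyme, 1 μM biotin-TK1 peptide and 20 μM ATP, 60 min at 23° C. Product detected with Eu-anti-TK1 antibody/XL665 (60 min at 23° C); compound at 10 doses, 300 nM to 0.015 nM final. IC50 from four-parameter fit.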

T1 sequence (P00533 25-1210): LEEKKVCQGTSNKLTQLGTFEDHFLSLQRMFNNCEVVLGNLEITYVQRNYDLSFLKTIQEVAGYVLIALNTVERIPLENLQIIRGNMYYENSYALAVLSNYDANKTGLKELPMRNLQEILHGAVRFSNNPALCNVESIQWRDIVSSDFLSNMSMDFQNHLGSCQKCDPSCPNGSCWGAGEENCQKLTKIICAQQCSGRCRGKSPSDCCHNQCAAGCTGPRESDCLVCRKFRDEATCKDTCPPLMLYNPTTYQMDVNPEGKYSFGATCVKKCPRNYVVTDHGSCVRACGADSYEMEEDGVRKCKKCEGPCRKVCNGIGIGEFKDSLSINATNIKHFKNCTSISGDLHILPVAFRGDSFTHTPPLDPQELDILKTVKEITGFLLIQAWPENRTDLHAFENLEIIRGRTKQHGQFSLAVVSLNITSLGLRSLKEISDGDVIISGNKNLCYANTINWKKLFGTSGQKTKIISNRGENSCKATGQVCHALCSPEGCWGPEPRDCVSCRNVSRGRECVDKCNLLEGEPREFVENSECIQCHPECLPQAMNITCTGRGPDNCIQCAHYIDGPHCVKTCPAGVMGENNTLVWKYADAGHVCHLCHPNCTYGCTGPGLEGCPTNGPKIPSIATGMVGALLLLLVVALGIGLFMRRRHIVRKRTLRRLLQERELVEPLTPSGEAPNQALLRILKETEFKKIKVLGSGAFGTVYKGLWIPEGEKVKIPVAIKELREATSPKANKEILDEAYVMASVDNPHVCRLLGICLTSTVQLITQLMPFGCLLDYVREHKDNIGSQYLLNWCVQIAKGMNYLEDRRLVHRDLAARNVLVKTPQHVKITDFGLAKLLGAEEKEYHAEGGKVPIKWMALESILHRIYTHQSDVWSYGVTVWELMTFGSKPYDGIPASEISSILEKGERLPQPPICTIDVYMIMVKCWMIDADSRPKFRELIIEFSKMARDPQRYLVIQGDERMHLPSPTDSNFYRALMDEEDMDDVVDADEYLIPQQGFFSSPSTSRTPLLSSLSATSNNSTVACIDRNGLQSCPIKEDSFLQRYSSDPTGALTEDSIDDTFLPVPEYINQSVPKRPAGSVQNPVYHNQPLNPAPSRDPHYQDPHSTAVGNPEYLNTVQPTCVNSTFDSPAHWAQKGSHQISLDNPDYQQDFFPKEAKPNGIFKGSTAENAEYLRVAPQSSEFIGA
T2 sequence (P00533 with tags, fused parts or gaps DEL746-750/T790M limits assumed): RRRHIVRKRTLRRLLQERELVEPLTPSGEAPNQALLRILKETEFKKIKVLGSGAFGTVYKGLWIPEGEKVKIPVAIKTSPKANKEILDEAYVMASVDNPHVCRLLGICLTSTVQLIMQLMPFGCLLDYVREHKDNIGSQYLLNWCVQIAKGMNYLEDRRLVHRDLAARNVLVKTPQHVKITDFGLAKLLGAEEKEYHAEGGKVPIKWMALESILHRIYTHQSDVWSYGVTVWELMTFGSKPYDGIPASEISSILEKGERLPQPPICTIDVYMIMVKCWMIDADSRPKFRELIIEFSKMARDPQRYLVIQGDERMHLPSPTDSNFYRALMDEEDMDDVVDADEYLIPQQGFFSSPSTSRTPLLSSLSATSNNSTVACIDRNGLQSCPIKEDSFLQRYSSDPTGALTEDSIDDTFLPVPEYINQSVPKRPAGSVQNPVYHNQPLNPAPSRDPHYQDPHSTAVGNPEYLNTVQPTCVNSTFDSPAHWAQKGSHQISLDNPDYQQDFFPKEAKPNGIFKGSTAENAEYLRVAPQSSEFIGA
T3 sequence (P06213 28-1382): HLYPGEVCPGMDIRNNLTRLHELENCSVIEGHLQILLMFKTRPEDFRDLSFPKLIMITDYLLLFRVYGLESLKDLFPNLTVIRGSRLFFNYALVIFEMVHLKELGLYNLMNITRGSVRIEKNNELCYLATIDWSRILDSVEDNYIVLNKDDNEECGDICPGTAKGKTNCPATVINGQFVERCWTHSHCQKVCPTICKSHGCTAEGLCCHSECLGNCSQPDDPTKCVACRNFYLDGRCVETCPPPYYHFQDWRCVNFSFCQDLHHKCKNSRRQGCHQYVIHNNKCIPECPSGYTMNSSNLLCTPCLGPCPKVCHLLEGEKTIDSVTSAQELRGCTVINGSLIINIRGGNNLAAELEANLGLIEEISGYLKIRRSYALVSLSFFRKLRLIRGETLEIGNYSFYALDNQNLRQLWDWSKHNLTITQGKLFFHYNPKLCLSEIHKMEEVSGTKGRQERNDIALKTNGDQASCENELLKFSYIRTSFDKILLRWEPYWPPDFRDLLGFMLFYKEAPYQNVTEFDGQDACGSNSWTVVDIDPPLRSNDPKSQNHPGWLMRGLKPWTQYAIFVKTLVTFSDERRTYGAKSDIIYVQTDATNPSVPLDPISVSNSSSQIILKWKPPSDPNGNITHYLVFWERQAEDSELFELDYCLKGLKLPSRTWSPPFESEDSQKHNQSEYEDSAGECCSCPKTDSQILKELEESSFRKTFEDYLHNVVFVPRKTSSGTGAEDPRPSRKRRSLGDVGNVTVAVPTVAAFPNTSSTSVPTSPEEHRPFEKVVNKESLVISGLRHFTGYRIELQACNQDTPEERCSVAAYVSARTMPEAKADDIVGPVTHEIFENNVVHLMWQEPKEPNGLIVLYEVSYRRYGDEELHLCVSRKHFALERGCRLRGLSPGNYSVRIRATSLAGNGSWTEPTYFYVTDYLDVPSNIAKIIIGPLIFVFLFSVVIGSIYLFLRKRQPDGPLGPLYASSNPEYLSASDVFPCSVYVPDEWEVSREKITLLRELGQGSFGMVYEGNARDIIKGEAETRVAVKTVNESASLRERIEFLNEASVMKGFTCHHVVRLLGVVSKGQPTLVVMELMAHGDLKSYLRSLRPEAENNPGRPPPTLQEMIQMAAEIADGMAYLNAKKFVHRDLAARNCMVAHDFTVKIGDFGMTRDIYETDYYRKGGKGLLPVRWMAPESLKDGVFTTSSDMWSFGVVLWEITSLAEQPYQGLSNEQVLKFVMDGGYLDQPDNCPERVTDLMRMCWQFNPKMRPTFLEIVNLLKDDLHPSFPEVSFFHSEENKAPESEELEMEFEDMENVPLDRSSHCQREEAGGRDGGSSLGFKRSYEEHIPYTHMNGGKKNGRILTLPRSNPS
T4 sequence (P00533 25-1210 T790M/L858R): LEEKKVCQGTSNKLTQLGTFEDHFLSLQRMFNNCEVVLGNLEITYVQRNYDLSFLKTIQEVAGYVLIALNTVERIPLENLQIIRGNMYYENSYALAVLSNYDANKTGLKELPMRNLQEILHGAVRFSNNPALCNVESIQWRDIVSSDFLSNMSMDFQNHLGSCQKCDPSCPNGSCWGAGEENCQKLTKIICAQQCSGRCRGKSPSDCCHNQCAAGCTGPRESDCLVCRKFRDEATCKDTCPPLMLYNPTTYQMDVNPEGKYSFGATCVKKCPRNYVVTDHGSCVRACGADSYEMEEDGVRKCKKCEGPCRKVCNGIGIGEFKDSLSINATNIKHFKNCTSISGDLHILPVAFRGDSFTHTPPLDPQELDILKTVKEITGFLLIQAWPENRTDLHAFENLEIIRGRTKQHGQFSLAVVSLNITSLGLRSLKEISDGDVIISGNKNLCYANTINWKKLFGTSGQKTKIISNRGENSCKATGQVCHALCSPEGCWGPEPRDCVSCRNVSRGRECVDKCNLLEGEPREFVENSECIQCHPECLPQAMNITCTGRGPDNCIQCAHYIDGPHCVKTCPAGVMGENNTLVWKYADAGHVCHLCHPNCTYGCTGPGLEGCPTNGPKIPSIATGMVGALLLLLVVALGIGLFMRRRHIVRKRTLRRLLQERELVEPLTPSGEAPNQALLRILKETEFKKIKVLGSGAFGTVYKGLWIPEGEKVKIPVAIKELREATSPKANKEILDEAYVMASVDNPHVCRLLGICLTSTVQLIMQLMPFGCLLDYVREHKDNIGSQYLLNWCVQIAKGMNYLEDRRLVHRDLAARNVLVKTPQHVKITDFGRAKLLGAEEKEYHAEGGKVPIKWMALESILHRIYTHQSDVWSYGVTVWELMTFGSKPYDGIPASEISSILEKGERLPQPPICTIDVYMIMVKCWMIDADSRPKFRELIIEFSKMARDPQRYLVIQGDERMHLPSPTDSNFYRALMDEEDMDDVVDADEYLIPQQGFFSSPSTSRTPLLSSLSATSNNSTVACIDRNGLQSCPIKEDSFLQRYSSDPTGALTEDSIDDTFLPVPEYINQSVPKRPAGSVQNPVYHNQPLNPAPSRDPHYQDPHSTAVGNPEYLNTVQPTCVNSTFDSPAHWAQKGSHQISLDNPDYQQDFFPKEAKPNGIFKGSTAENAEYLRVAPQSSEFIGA

pIC50 (EGFR wild type)	pIC50 [4]	pIC50 (A431 cells EGFR WT)	pIC50 (EGFR d746-750/T790M)	pIC50 (INSR)	pIC50 (EGFR T790M/L858R)	Structure (SMILES)	Tumor Volume (mm^3) 4 days [1] [mm^3]	Tumor Volume (mm^3) 7 days [1] [mm^3]	Tumor Volume (mm^3) 11 days [1] [mm^3]	Tumor Volume (mm^3) 14 days [1] [mm^3]	Tumor Volume (mm^3) 18 days [1] [mm^3]	Tumor Volume (mm^3) 21 days ([1]; day 21, oral daily: compound 30 10 mg/kg, 33, 34, 40, 42, 43 20 mg/kg) [mm^3]	Tumor Volume (mm^3) 0 day [2] [mm^3]	Tumor Volume (mm^3) 4 days ([3]; day 4, oral once daily: 33, 34, 40, 42, 43 20 mg/kg) [mm^3]	Tumor Volume (mm^3) 11 days ([3]; day 11, oral once daily: 33, 34, 40, 42, 43 20 mg/kg) [mm^3]	Tumor Volume (mm^3) 18 days ([3]; day 18, oral once daily: 33, 34, 40, 42, 43 20 mg/kg) [mm^3]	A431:NCI-H1975 (ratio) (A431 cells EGFR WT)
						C=CC(=O)Nc1cc(Nc2nccc(-c3cn(C)c4ccccc34)n2)c(OC)cc1N(C)CCN(C)C [AZD9291, reference compound]	86	64	52	66	25	15	149	153	219	330	
9.10	7.82	6.08	9.80	6.41	9.85	C=CC(=O)Nc1cc(Nc2ncc(F)c(-c3c4n(c5ccccc35)CCOC4)n2)c(OC)cc1N(C)CCN(C)C [Embodiment 30, N-(5-((4-(3,4-Dihydro-1H-[1,4]oxazino[4,3-a]indol-10-yl)-5-fluoropyrimidin-2-yl)amino)-2-((2-(dimethylamino)ethyl)(methyl)amino)-4-methoxyphenyl)acrylamide]	115	90	48	34	22						55
9.46	7.90	6.52	10.00	6.36	10.00	C=CC(=O)Nc1cc(Nc2nccc(-c3c4n(c5ccc(F)cc35)CCOC4)n2)c(OC)cc1N(C)CCN(C)C [Embodiment 37, N-(2-((2-(Dimethylamino)ethyl)(methyl)amino)-5-((4-(8-fluoro-3,4-dihydro-1H-[1,4]oxazino[4,3-a]indol-10-yl)pyrimidin-2-yl)amino)-4-methoxyphenyl)acrylamide]											24
9.22	8.15	6.50	10.00	6.51	10.05	C=CC(=O)Nc1cc(Nc2nccc(-c3c4n(c5cc(F)ccc35)CCOC4)n2)c(OC)cc1N(C)CCN(C)C [Embodiment 38, N-(2-((2-(Dimethylamino)ethyl)(methyl)amino)-5-((4-(7-fluoro-3,4-dihydro-1H-[1,4]oxazino[4,3-a]indol-10-yl)pyrimidin-2-yl)amino)-4-methoxyphenyl)acrylamide]											45
